Measurements as given in patent US20230295201A1 (Gilead Sciences, Inc., priority 2020, published 2023).
Like-named read-outs stand apart in the source and are kept apart here.

Tests used:
[1] = system: RSV strain A2; assay: RSV HEp-2 EC50 (infectious cytopathic cell protection assay); format: cell-based; conditions: human respiratory syncytial virus, HEp-2, 96 h, read-out: RSV HEp-2 EC50
Summary of the method: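 Percent inhibition of RSV-induced cytopathic effect came from remaining cell viability (CellTiter-Glo luminescence) after 4 days at 37° C. Compounds in 3-fold serial dilutions were exposed to an infectious mix of titered A2 virus and HEp-2 cells at 50,000/ml, with 0% and 100% inhibition control standards.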

[2] = system: RSV A2; assay: RSV NHBE EC50 (RSV A2 antiviral assay in normal human bronchial epithelial cells); format: cell-based; conditions: human respiratory syncytial virus, NHBE, 96 h, read-out: RSV NHBE EC50
[3] = system: HRV16; assay: HRV16 HELA EC50 (cytopathic effect in H1-HeLa cells); format: cell-based; conditions: 96 h, read-out: HRV16 HELA EC50
Summary of the method: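 Read-out is luminescent cell viability (CellTiter-Glo) after 96 h of infection at 33 °C, scaled between uninfected and infected-untreated wells. Before infection with titrated virus, compounds went onto H1-HeLa cells as triplicate 3-fold dilution series.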

[4] = HEp-2 CC50 (cytotoxicity, Cell-Titer Glo); format: cell-based; conditions: human; uninfected HEp-2 cells, 4-5 days
Protocol: The same protocol as for the determination of antiviral activity is used for the measurement of compound cytotoxicity except that the cells are not infected with RSV. Instead, an uninfected cell mixture at the same density is added at 20 ul/well to plates containing prediluted compounds, also at 100 nL/sample. Assay plates are then incubated for 4 days followed by a cell viability test using the same CellTiter Glo reagent addition and measurement of luminescent readouts.

[5] = MT4 CC50 (cytotoxicity, Cell-Titer Glo); conditions: human
Protocol: (§1) HEp-2 (1.5×10^3 cells/well) and MT-4 (2×10^3 cells/well) cells were plated in 384-well plates and incubated with the appropriate medium containing 3-fold serially diluted compound ranging from 15 nM to 100,000 nM. Cells were cultured for 4-5 days at 37° C. Following the incubation, the cells were allowed to equilibrate to 25° C., and cell viability was determined by adding Cell-Titer Glo viability reagent. The mixture was incubated for 10 min, and the luminescence signal was quantified using an Envision plate reader. Untreated cell and cells treated at 2 μM puromycin (Sigma, St. Louis, MO) serve as 100% and 0% cell viability control, respectively.

[6] = HELA CC50 (cytotoxicity); conditions: human, HeLa cells
[7] = system: DENV2 replicon; assay: DENV-2 Huh-7 Rep EC50 (replicon luminescence); format: cell-based; conditions: Dengue virus, DENV2, Huh-7, 48 h, read-out: DENV-2 Huh-7 Rep EC50
Summary of the method: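 EC50 derived from luminescence dose-response, normalised to DMSO-only 0% inhibition wells, after 1.5 h with EnduRen substrate. Compounds were first exposed for 48 h at 37° C to DENV2 replicon Huh-7 cells (5,000/well).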

[8] = in vitro; conditions: human
Protocol: as §1

[9] = in vitro; conditions: human; remark: listed apart in the source

## COC(=O)[C@H](C)N[P@](=O)(OC[C@@]1(C#N)O[C@@H](c2ccc3c(N)ncnn23)[C@H](OC(=O)C(C)C)[C@@H]1O)Oc1ccccc1 [Example 250, (2S,3R,4S,5R)-2-(4-aminopyrrolo[2,1-f][1,2,4]triazin-7-yl)-5-cyano-4-hydroxy-5-((((S)—(((S)-1-methoxy-1-oxopropan-2-yl)amino)(phenoxy)phosphoryl)oxy)methyl)tetrahydrofuran-3-yl isobutyrate]
[1]; HEp-2 cells, RSV A2, 4 days
  EC50: 69 nM
[2]; NHBE cells, RSV A2, 4 days
  EC50: 51 nM
[3]; H1-HeLa cells, 33° C.
  EC50: 1180 nM
[4]
  CC50: > 50000 nM

## CCOC(=O)c1ccccc1OP1(=O)OC[C@@]2(C#N)O[C@@H](c3ccc4c(N)ncnn34)[C@H](OC(=O)CC)[C@@H]2O1 (stereo partly drawn) [Example 230]
[1]
  EC50: 1650 nM
[5]
  CC50: > 50000 nM
[2]
  EC50: > 5000 nM
[3]
  EC50: 11500 nM
[6]
  CC50: > 50000 nM
[7]
  EC50: > 50000 nM
[4]
  CC50: > 50000 nM

## CC(C)C(=O)O[C@H]1[C@H](c2ccc3c(N)ncnn23)O[C@](C#N)(CO[P@@](=O)(N[C@@H](C)C(=O)OC2CCCCC2)Oc2ccccc2)[C@H]1O (single isomer, unassigned) [Example 205]
[1]; HEp-2 cells, RSV A2, 4 days
  EC50: 101 nM
[2]; NHBE cells, RSV A2, 4 days
  EC50: 27 nM
[3]; H1-HeLa cells, 33° C.
  EC50: 417 nM
[7]; Huh-7 replicon cells, 48 hours
  EC50: 6100 nM
[4]
  CC50: 58600 nM

## CC(C)OC(=O)[C@H](C)N[P@](=O)(OC[C@@]1(C#N)O[C@@H](c2ccc3c(N)ncnn23)[C@H](OC(=O)C(C)C)[C@@H]1O)Oc1ccccc1 (single isomer, unassigned) [Example 240]
[1]; HEp-2 cells, RSV A2, 4 days
  EC50: 166 nM
[8]
  CC50: > 50000 nM
[2]; NHBE cells, RSV A2, 4 days
  EC50: 190 nM
[3]; H1-HeLa cells, 33° C.
  EC50: 1310 nM
[9]
  CC50: > 50000 nM
[7]; Huh-7 replicon cells, 48 hours
  EC50: 10600 nM
[4]
  CC50: > 50000 nM

## CC(C)OC(=O)[C@H](C)N[P@](=O)(OC[C@@]1(C#N)O[C@@H](c2ccc3c(N)ncnn23)[C@H](O)[C@@H]1OC(=O)C(C)(C)C)Oc1ccccc1 (single isomer, unassigned) [Example 239]
[1]; HEp-2 cells, RSV A2, 4 days
  EC50: 148 nM
[8]
  CC50: > 50000 nM
[2]; NHBE cells, RSV A2, 4 days
  EC50: 54 nM
[3]; H1-HeLa cells, 33° C.
  EC50: 1120 nM
[9]
  CC50: > 50000 nM
[7]; Huh-7 replicon cells, 48 hours
  EC50: 25400 nM
[4]
  CC50: > 50000 nM

## CC(C)C(=O)O[C@H]1[C@@H](O)[C@H](c2ccc3c(N)ncnn23)O[C@]1(C#N)CO[P@@](=O)(N[C@@H](C)C(=O)OC1CCCCC1)Oc1ccccc1 (single isomer, unassigned) [Example 206]
[1]; HEp-2 cells, RSV A2, 4 days
  EC50: 85 nM
[8]
  CC50: 16600 nM
[2]; NHBE cells, RSV A2, 4 days
  EC50: 62 nM
[4]
  CC50: 55200 nM

## CC(C)OC(=O)[C@H](C)N[P@](=O)(OC[C@@]1(C#N)O[C@@H](c2ccc3c(N)ncnn23)[C@H](O)[C@@H]1OC(=O)C(C)C)Oc1ccccc1 (single isomer, unassigned) [Example 241]
[1]; HEp-2 cells, RSV A2, 4 days
  EC50: 293 nM
[8]
  CC50: > 50000 nM
[2]; NHBE cells, RSV A2, 4 days
  EC50: 190 nM
[7]; Huh-7 replicon cells, 48 hours
  EC50: 15500 nM
[4]
  CC50: > 50000 nM

## CCOC(=O)[C@H](C)N[P@](=O)(OC[C@@]1(C#N)O[C@@H](c2ccc3c(N)ncnn23)[C@@H]2OC(OCC)O[C@@H]21)Oc1ccccc1 (stereo partly drawn) [Example 233, ethyl ((S)-(((3aS,4R,6S,6aS)-6-(4-aminopyrrolo[2,1-f][1,2,4]triazin-7-yl)-4-cyano-2-ethoxytetrahydrofuro[3,4-d][1,3]dioxol-4-yl)methoxy)(phenoxy)phosphoryl)-L-alaninate]
[1]; HEp-2 cells, RSV A2, 4 days
  EC50: 1750 nM
[2]; NHBE cells, RSV A2, 4 days
  EC50: > 4640 nM
[3]; H1-HeLa cells, 33° C.
  EC50: 3350 nM
[7]; Huh-7 replicon cells, 48 hours
  EC50: 35800 nM
[4]
  CC50: > 50000 nM

## CC(C)OC(=O)[C@H](C)N[P@](=O)(OC[C@@]1(C#N)O[C@@H](c2ccc3c(N)ncnn23)[C@H](OC(=O)C(C)(C)C)[C@@H]1O)Oc1ccccc1 (single isomer, unassigned) [Example 238]
[1]; HEp-2 cells, RSV A2, 4 days
  EC50: 91 nM
[8]
  CC50: 45000 nM
[2]; NHBE cells, RSV A2, 4 days
  EC50: 41 nM
[3]; H1-HeLa cells, 33° C.
  EC50: 731 nM
[9]
  CC50: > 50000 nM
[7]; Huh-7 replicon cells, 48 hours
  EC50: 9710 nM
[4]
  CC50: > 50000 nM
